Data on 25 compounds can be found in ChEMBL document CHEMBL5036375, “Malaria Box-Inspired Discovery of N-Aminoalkyl-β-carboline-3-carboxamides, a Novel Orally Active Class of Antimalarials” (ACS Med Chem Lett, 2022).

Activity calls are given as the source filed them. The calls are words filed in the database; no cut-off is given here.

As a reminder, the EC50 is the concentration at which the effect is half-maximal. By bioavailability is commonly meant dose-corrected exposure relative to a reference, in per cent. For orientation: MIC means the least concentration at which growth counts as inhibited. Broadly, the IC50 is the midpoint of a concentration-inhibition curve. As usually defined, the half-life is how long it takes for the measured level to halve. Broadly, the Vd is a proportionality between amount in the body and measured concentration, not a real space. As usually defined, the Cmax is the highest concentration seen after dosing. What is called CC50 is the concentration that lowers cell viability or growth by half. What is called logD is the decadic logarithm of the distribution of all forms, ionised or not, between an organic phase and buffer at a given pH.

Data set [1] has as its system Plasmodium falciparum. The data set is described as follows: Antimalarial activity against synchronized Plasmodium falciparum Dd2 (MRA-150) infected in human O-postive erythrocytes assessed as reduction in parasite growth after 72 hrs by SYBR green I staining based fluorescence assay. The format is functional, organism-based.
Data set [2] relates to Plasmodium falciparum. The data set is described as follows: Antimalarial activity against synchronized Plasmodium falciparum Dd2 (MRA-150) infected in human O-postive erythrocytes in presence of IPP assessed as reduction in parasite growth at 2.5 uM measured after 72 hrs by SYBR green I staining based fluorescence assay relative to control. The format is functional. More on the design: scale not given: the % may be the effect or the level left.

The nature of data set [3]: Oral bioavailability in rat at 40 mg/kg. The format is ADME, organism-based. To be noted: in vivo.
In data set [4] the test system is Plasmodium falciparum. Nature of the data set: Antimalarial activity against Plasmodium falciparum 4G infected in human O-postive erythrocytes measured after 72 hrs by SYBR green I staining based fluorescence assay. It is filed as functional, organism-based.
A short description of data set [5]: Toxicity in mouse infected with Plasmodium berghei ANKA assessed as weight loss at 40 mg/kg, po measured after 4 days. It is filed as organism-based. To be noted: in vivo, 96 h, time 4 day.
A short description of data set [6]: Thermodynamic solubility of PBS at pH 7.4 by LC-MS analysis. To be noted: read-out: Therm_solubility. It is filed as physicochemical.
The test system of another data set is Escherichia coli. The data set is described as follows: Antibacterial activity against Escherichia coli (BL21) assessed as bacterial growth after 18 hrs by g a cell density meter. It is filed as functional.
Data set [7] is described as follows: Toxicity in mouse infected with Plasmodium berghei ANKA assessed as ruffled fur at 40 mg/kg, po measured after 4 days. To be noted: in vivo, 96 h, time 4 day. The format is organism-based.
Data set [8] concerns Plasmodium falciparum. The data set is described as follows: Antimalarial activity against KAE609 resistant Plasmodium falciparum Dd2 infected in human O-postive erythrocytes measured after 72 hrs by SYBR green I staining based fluorescence assay. The format is functional, organism-based. To be noted: Dd2, 72 h.
Data set [9] has as its target Voltage-gated inwardly rectifying potassium channel KCNH2 (Homo sapiens, UniProt Q12809). The data set is described as follows: Inhibition of human ERG expressed in HEK-293 cells by patch clamp method. The format is cell-based, HEK293. A general note: The patch-clamp technique gives a direct electrical read-out from membranes.
In data set [10] the test system is Plasmodium berghei. Nature of the data set: Antimalarial activity against Plasmodium berghei ANKA expressing luciferase, PbGFP-Luccon infected in mouse assessed as reduction in parasitemia at 40 mg/kg, po measured after 4 days by luminescence assay. It is filed as functional, organism-based. To be noted: time 4.0 day.
A short description of data set [11]: Half life in CD-1 mouse liver microsomes after 60 mins by LC-MS analysis. The format is ADME, Microsome. (Liver microsomes are vesicles of endoplasmic reticulum, rich in cytochrome P450 enzymes.)
Data set [12] is described as follows: Stability in CD-1 mouse plasma at 1 hour by LC-MS analysis a. The format is ADME, cell-free. To be noted: read-out: Stability.
The nature of data set [13]: Volume of distribution in rat at 10 mg/kg , iv. It is filed as ADME, organism-based. To be noted: in vivo.
Data set [14] can be described thus: Toxicity in mouse infected with Plasmodium berghei ANKA assessed as behavioural changes at 40 mg/kg, po measured after 4 days. To be noted: in vivo, 96 h, time 4 day. It is filed as organism-based.
The nature of data set [15]: Toxicity in mouse infected with Plasmodium berghei ANKA assessed as lethargy at 40 mg/kg, po measured after 4 days. It is filed as organism-based. To be noted: in vivo, 96 h, time 4 day.
Data set [16] can be described thus: Cmax in rat at 40 mg/kg, po. It is filed as ADME, organism-based. More on the design: route oral, dose 40 mg/kg. To be noted: in vivo.
The nature of data set [17]: Toxicity in mouse infected with Plasmodium berghei ANKA assessed as gait at 40 mg/kg, po measured after 4 days. It is filed as organism-based. To be noted: in vivo, 96 h, time 4 day.
Data set [18] relates to Plasmodium falciparum. The data set is described as follows: Antimalarial activity against Plasmodium falciparum 3D7A incubated for 48 hrs by [3H]-hypoxanthine incorporation assay. The format is functional, organism-based. To be noted: 3D7.
Data set [19] can be described thus: Half life in rat plasma 40 mg/kg, po. The format is ADME, organism-based.
In a further data set the test system is Hepatocyte. The data set is described as follows: Cytotoxicity against human hepatocytes measured after 96 hrs by DAPI staining based fluroscence assay. The format is functional.
Data set [20] has as its system Plasmodium falciparum. Nature of the data set: Antimalarial activity against Plasmodium falciparum 3D7 (MRA-102) incubated for 72 hrs by Lactate dehydrogenase activity. The format is functional, organism-based. To be noted: 3D7 MRA-102, 72 h.
The nature of data set [21]: Lipophilicity, logD of the compound between 1-octanol and PBS pH 7.4 at 10 mM by LC-MS analysis. It is filed as physicochemical. To be noted: 1-octanol/PBS.
Data set [22] has as its system Plasmodium berghei. Nature of the data set: Antimalarial activity against Plasmodium berghei ANKA expressing luciferase, PbGFP-Luccon infected in mouse assessed as reduction in parasitemia at 20 mg/kg, po measured after 4 days by luminescence assay. To be noted: time 4.0 day. The format is functional, organism-based.
Data set [23] concerns Plasmodium falciparum. Nature of the data set: Antimalarial activity against Plasmodium falciparum W2 infected in human O-postive erythrocytes measured after 72 hrs by SYBR green I staining based fluorescence assay. The format is functional, organism-based. To be noted: W2, 72 h.
Data set [24] has as its system Plasmodium falciparum. Nature of the data set: Antimalarial activity against Plasmodium falciparum 3D7 (MRA-102) infected in human O-postive erythrocytes measured after 72 hrs by SYBR green I staining based fluorescence assay. The format is functional, organism-based. To be noted: 3D7 MRA-102, 72 h.
The test system of the next data set is HEK293. The data set is described as follows: Cytotoxicity against human HEK293 cells by resazurin based cell viability assay. The format is functional. A general note: The colour change of resazurin is a common sign of viable cells or microbes.
Data set [25] relates to Plasmodium falciparum. The data set is described as follows: Antimalarial activity against synchronized Plasmodium falciparum Dd2 (MRA-150) infected in human O-postive erythrocytes in presence of IPP assessed as reduction in parasite growth at 5 uM measured after 72 hrs by SYBR green I staining based fluorescence assay relative to control. It is filed as functional. More on the design: scale not given: the % may be the effect or the level left.

Sequence of Voltage-gated inwardly rectifying potassium channel KCNH2 (Q12809 whole entry): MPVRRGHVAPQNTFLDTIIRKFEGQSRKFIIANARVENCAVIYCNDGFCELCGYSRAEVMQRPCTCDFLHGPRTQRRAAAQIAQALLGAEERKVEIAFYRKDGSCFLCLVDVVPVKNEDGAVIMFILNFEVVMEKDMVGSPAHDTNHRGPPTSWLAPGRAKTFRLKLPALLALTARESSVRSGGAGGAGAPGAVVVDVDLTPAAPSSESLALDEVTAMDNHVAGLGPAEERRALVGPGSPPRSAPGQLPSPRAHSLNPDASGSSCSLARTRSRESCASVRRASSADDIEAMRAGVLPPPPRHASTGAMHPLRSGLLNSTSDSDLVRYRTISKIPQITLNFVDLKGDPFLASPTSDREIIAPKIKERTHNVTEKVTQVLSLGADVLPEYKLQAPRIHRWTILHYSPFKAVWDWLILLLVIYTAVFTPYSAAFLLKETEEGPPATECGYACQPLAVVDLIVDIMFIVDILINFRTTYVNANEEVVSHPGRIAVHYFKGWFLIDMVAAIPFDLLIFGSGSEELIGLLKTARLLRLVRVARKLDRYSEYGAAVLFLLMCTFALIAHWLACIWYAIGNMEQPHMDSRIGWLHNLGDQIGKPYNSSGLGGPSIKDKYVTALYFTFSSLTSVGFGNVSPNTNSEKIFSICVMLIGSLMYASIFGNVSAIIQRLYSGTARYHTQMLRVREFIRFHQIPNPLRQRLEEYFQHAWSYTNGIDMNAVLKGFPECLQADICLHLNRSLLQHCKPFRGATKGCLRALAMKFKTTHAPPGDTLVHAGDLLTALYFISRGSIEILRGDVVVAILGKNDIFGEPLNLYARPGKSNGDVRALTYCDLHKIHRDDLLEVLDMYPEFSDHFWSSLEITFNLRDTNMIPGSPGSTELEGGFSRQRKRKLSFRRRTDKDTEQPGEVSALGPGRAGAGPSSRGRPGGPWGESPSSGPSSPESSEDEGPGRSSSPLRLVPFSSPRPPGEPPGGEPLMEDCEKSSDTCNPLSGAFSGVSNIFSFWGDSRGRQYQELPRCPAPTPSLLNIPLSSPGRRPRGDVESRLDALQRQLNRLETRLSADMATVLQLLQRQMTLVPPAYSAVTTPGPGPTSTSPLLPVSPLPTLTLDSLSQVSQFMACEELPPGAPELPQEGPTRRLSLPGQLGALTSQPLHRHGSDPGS

For `CNCCNC(=O)c1cc2c([nH]c3c(C)cccc32)c(-c2ccc(Cl)cc2Cl)n1`, the 50% effective concentration (EC50) in the data set with Plasmodium falciparum [1] turned out to be 583 nM.

`COC(=O)c1cc2c([nH]c3c(C)cccc32)c(-c2ccc(Cl)c(Cl)c2)n1`: the EC50 in the data set with Plasmodium falciparum [1] was over 10000 nM.

Turning to `CNCCNC(=O)c1cc2c([nH]c3c(C)cccc32)c(-c2ccccc2)n1`, the half-maximal effective concentration (EC50) with Plasmodium falciparum [1] came to 4000 nM.

Take `CNC(=O)c1cc2c([nH]c3c(C)cccc32)c(-c2ccc(Cl)c(Cl)c2)n1`: the EC50 in the data set with Plasmodium falciparum [1] is over 10000 nM.

`O=C(O)[C@@H]1Cc2c([nH]c3ccccc23)[C@@H](c2ccc(Cl)cc2Cl)N1`: in the data set with Plasmodium falciparum [2], the Activity came out at 100%.

Regarding `CNCCCNC(=O)c1cc2c([nH]c3c(C)cccc32)c(-c2ccc(Cl)c(Cl)c2)n1`, the concentration for a half-maximal effect (EC50) in the data set with Plasmodium falciparum [1] worked out at 217 nM.

For the compound `Cc1cccc2c1[nH]c1c(-c3ccc(Cl)c(Cl)c3)nc(C(=O)NCCN(C)C)cc12`, the EC50 in the data set with Plasmodium falciparum [1] was found to be 264 nM.

In the case of `Cc1cccc2c1[nH]c1c(-c3ccc(Cl)c(Cl)c3)nc(C(=O)NCCN)cc12`, the EC50 in the data set on Plasmodium falciparum [1] was 263 nM.

As to `Cc1cccc2c1[nH]c1c(-c3ccc(Cl)c(Cl)c3)nc(C(=O)O)cc12`, in the data set on Plasmodium falciparum [1], the EC50 was over 10000 nM.

In [3], `CNCCNC(=O)c1cc2c([nH]c3c(C)cccc32)c(-c2ccc(Cl)c(Cl)c2)n1.Cl` gave a bioavailability of 40%. Also, the half-maximal effective concentration (EC50) in the data set with Plasmodium falciparum [4] was 110 nM; with Plasmodium falciparum [8], 101 nM; with Plasmodium falciparum [1], 108 nM; with Plasmodium falciparum [23], 100 nM; in the data set on Plasmodium falciparum [24] it was 53 nM. For the same compound, the Activity entry in data set [5] is reported as “Non-Toxic”; in data set [7], “Non-Toxic”; in data set [14] it was “Non-Toxic”; in data set [15], “Non-Toxic”; in the data set on Plasmodium falciparum [2], 0%; in [17], “Non-Toxic”. Also, the solubility thermodynamic in data set [6] turned out to be 9.5 µM. Besides, the MIC in the data set with Escherichia coli is over 250 µM. Besides, the IC50 in data set [9] was 510 nM; with Plasmodium falciparum [18], 70 nM; in the data set on Plasmodium falciparum [20] it was 117 nM. The outcome in the data set with Plasmodium berghei [10] was Active. Further, the half-life in data set [11] was 1.83 h; in data set [19] it was 8 h. Moreover, in data set [12], the remaining at 1 h amounted to 100%. This compound also yielded a Vd in data set [13] of 21.8 L/kg. The concentration in [16] peaked (Cmax) at 800 nM. Also, the CC50 with Hepatocyte was 8500 nM; in the data set on HEK293, 32000 nM. Further, the logD at 10000 µM in [21] was determined as 3.3. Further, in the data set with Plasmodium berghei [22], the outcome was inactive.

As to `Cc1cccc2c1[nH]c1c(-c3ccc(Cl)c(Cl)c3)nc(C(=O)NCCCN)cc12`, the concentration for a half-maximal effect (EC50) in the data set on Plasmodium falciparum [1] turned out to be 726 nM.

Consider `CNCCNC(=O)c1cc2c([nH]c3ccccc32)c(-c2ccc(Cl)cc2)n1`, for which the concentration giving a half-maximal response (EC50) in the data set with Plasmodium falciparum [1] came to 496 nM.

For `Cc1cccc2c1[nH]c1c(-c3ccc(Cl)c(Cl)c3)nc(C(=O)NCCO)cc12`, the EC50 with Plasmodium falciparum [1] stood at 3270 nM.

As for `CNCCNC(=O)c1cc2c([nH]c3ccccc32)c(-c2cccc(Cl)c2)n1`, the 50% effective concentration (EC50) in the data set with Plasmodium falciparum [1] was found to be 641 nM.

`CNCCNC(=O)[C@@H]1Cc2c([nH]c3c(C)cccc23)[C@@H](c2ccc(Cl)cc2Cl)N1`: the Activity in the data set on Plasmodium falciparum [25] is 50%. Moreover, the concentration giving a half-maximal response (EC50) in the data set with Plasmodium falciparum [1] turned out to be 1950 nM.

In the case of `CNCCNC(=O)[C@H]1Cc2c([nH]c3c(C)cccc23)[C@@H](c2ccc(Cl)cc2Cl)N1`, in the data set on Plasmodium falciparum [1], the EC50 was found to be 1430 nM.

`CNCCNC(=O)[C@H]1Cc2c([nH]c3c(C)cccc23)[C@H](c2ccc(Cl)cc2Cl)N1`: the EC50 with Plasmodium falciparum [1] was found to be 3690 nM.

In the case of `CCN(CC)CCCC(C)Nc1ccnc2cc(Cl)ccc12` (configuration not stated), the result with Plasmodium berghei [10] was Active.

As for `CNCCNC(=O)c1cc2c([nH]c3ccccc32)c(-c2ccc(Cl)c(Cl)c2)n1`, the EC50 in the data set with Plasmodium falciparum [1] was determined as 277 nM.

As to `CNCCNC(=O)c1cc2c([nH]c3c(C)cccc32)c(-c2ccc(Cl)cc2)n1`, in the data set on Plasmodium falciparum [1], the EC50 stood at 274 nM.

For the compound `CNCCNC(=O)[C@@H]1Cc2c([nH]c3c(C)cccc23)[C@H](c2ccc(Cl)cc2Cl)N1`, in the data set with Plasmodium falciparum [1], the EC50 is 1300 nM.

Consider `CCCCNC(=O)c1cc2c([nH]c3c(C)cccc32)c(-c2ccc(Cl)c(Cl)c2)n1`, for which the EC50 in the data set on Plasmodium falciparum [1] amounted to 1020 nM.

In the case of `Cc1cccc2c1[nH]c1c(-c3ccc(Cl)c(Cl)c3)nc(C(=O)NCCCN(C)C)cc12`, the half-maximal effective concentration (EC50) in the data set with Plasmodium falciparum [1] was 240 nM.

Turning to `CNCCNC(=O)c1cc2c([nH]c3ccccc32)c(-c2ccccc2)n1`, in the data set with Plasmodium falciparum [1], the EC50 stood at 2500 nM.

Turning to `CNCCNC(=O)c1cc2c([nH]c3c(C)cccc32)c(-c2cccc(Cl)c2)n1`, the 50% effective concentration (EC50) in the data set with Plasmodium falciparum [1] was determined as 342 nM.
